The source made the active and inactive calls.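 How the source made its calls: active means half-maximal concentration for the rise in caspase light signal at or below ten times the top tested dose; inconclusive means flat fit between 30% and 70% activity, or unreliable curve fit; inactive means the rest.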

This test concerns MEF A1-2A-BIM cells, caspase 3/7 luminescence, 3 h. The test is described as follows: caspase activation in A1-2A-BIM MEF cells, dose response, A1 inhibitor project, cell-based, luminescence, retest (AID 2765).
One may read the EC50 as the concentration at which the effect is half-maximal. `COc1ccc(/C=C2\SC(=O)N(CCC(=O)N(C)C3CCS(=O)(=O)C3)C2=O)cc1` (stereo not given): the EC50 is > 35 µM (inactive).
The figure for `O=C1C2CCCN2C(c2cccc(Br)c2)N1c1ccc(F)cc1` (stereo not given) is > 35 µM (inactive); for `COc1cc(C(=O)Nc2cc(-c3ccccc3)[nH]n2)cc(OC)c1OC` it is > 35 µM (inactive); for `CCOC(=O)Cc1csc(/N=C/c2c(O)n(-c3ccc(C)c(C)c3)c(=O)c3ccccc23)n1` it is 9.23 µM.
As to `CC(C)(C)[C@H](N)C(=O)N[C@H]1CCC2C3CC=C4C[C@@H](O)CC[C@]4(C)C3CC[C@@]21C` (stereo not given in full), the EC50 was > 35 µM (inactive).
Regarding `CCOC(=O)COc1ccccc1/C=C\[N+](=O)[O-]`, the EC50 is 5.85 µM.
The figure for `O=C(/C=C/c1ccc(O)cc1)c1ccc(O)cc1O` is > 35 µM (inactive); for `COc1ccccc1NS(=O)(=O)c1ccc(C)c(C(=O)N2CCN(c3ccc(O)cc3)CC2)c1` it is > 35 µM (inactive).
Take `O=C(NCCc1ccc(Cl)cc1)C1CCCN(S(=O)(=O)N2CCCCCC2)C1` (stereo not given): the EC50 was > 35 µM (inactive).
As for `O=C(CCS(=O)(=O)c1ccccc1)N(CCCN1CCOCC1)c1nc2ccc(F)cc2s1`, the figure is > 35 µM (inactive); as for `CN1C(C(=O)Nc2cccc(O)c2)=CC(c2ccco2)=NS1(=O)=O`, > 35 µM (inactive); as for `CSc1ccc(S(=O)(=O)N2CCC(C(=O)NCCc3ccccc3)CC2)cc1`, > 35 µM (inactive).
Turning to `CN(CC(=O)Nc1cccc2ccccc12)C(=O)c1ccc(NC(=O)CC#N)cc1`, the EC50 was > 35 µM (inactive).
`Cc1cc(C(F)(F)F)n2ncc(-c3cccc(Br)c3)c2n1`: the EC50 is > 35 µM (inactive).
Consider `COc1cc(SC#N)ccc1N=Cc1c(C)[nH]n(-c2ccc(C)cc2)c1=O`, for which the EC50 was > 35 µM (inactive).
On to `COc1ccc(CCNC(=O)COC(=O)c2cnc(Cl)c(Cl)c2)cc1`, for which the EC50 is > 35 µM (inactive).
Turning to `COc1ccc(CN2CCCCC2C)cc1C` (stereo not given), the EC50 is > 35 µM (inactive).
The figure for `O=C(Cc1ccc(-n2cccc2)cc1)NC1CCCCC1` is > 35 µM (inactive); for `Cc1ccc(NC(=O)c2cccc(S(=O)(=O)NCc3ccccc3)c2)nc1` it is > 35 µM (inactive).
As for `Cc1ccc(S(=O)(=O)N(C)Cc2ccc(C(=O)N/N=C/c3ccc(OC(F)F)cc3)cc2)cc1`, the figure is > 35 µM (inactive); as for `O=C(OCn1ncc(Cl)c(Cl)c1=O)c1cccc(C(F)(F)F)c1`, > 35 µM (inactive); as for `CCCCn1nc(C)c(C(=O)O)c1Cl`, > 35 µM (inactive).
For `COc1ccccc1N1C(=O)c2cccc3c(Cl)ccc(c23)C1=O`, the EC50 was > 35 µM (inactive).
For `CCC(=O)N/C(N)=N/c1nc(C)c2cc(C)c(C)cc2n1`, the EC50 is > 35 µM (inactive).
`CC(C)N(C(=O)CSc1ccc(S(=O)(=O)N2CCCCC2)cn1)C(C)C`: the EC50 was > 35 µM (inactive).
As for `CC(C)CC(NC(N)=O)C(=O)OCC(=O)Nc1ccc(SC(F)F)cc1` (stereo not given), the figure is > 35 µM (inactive).
In the case of `COc1ccccc1OCC(=O)NNC(=O)c1ccc(F)c(S(=O)(=O)N2CCOCC2)c1`, the EC50 was > 35 µM (inactive).
In the case of `CCc1cccc(C)c1Nc1nc2ccccc2n2cnnc12`, the EC50 is > 35 µM (inactive).
With `COc1cc(/C=C/C(=O)c2ccc([N+](=O)[O-])o2)ccc1O`, the EC50 is > 35 µM (inactive).
As to `O=C(CCCCCn1c(=S)[nH]c2ccsc2c1=O)NC1CCCCC1`, the EC50 was > 35 µM (inactive).
The figure for `O=C(O)/C=C/C(=O)Nc1ccc(OC(F)F)cc1` is > 35 µM (inactive); for `Cc1cc(C)cc(N(CC(=O)Nc2cccc(C)c2C)S(=O)(=O)c2c(C)[nH]c(=O)[nH]c2=O)c1` it is > 35 µM (inactive).
With `COc1cc(OC)cc(C(=O)N[C@H](C(=O)OCC(=O)Nc2ccc(C)cc2C)C(C)C)c1`, the EC50 is > 35 µM (inactive).
For the molecule `COc1ccc(C2CC(c3c(O)cc(C)oc3=O)=NCCS2)c(OC)c1` (stereo not given), the EC50 was > 35 µM (inactive).
`COc1cc(C(=O)NCc2cc(C)nc3ccccc23)cc(OC)c1OC`: the EC50 was > 35 µM (inactive).
Turning to `Cc1ccn(C(=O)c2ccc(NC(=O)C3CCCCC3)cc2)n1`, the EC50 was > 35 µM (inactive).
Turning to `O=C(COC(=O)c1ccccc1Br)NC1CCCCCCC1`, the EC50 is > 35 µM (inactive).
As for `COc1ccc(/C=C/C(=O)NC(=S)NCCc2ccc(OC)c(OC)c2)cc1`, the EC50 was > 35 µM (inactive).
As for `O=C(NCc1ccco1)/C(=C/c1ccc([N+](=O)[O-])cc1)NC(=O)c1ccco1`, the figure is > 35 µM (inactive).
The figure for `CCN1CCN(CC(=O)Nc2cc(F)ccc2C)CC1` is > 35 µM (inactive); for `O=C(N/C=N/OCc1ccc(Cl)cc1Cl)NOCc1ncc(C(F)(F)F)cc1Cl` it is > 35 µM (inactive); for `C=C1C(=O)O[C@H]2C[C@@H](C)[C@@H]3C=CC(=O)[C@@]3(C)C[C@H]12` it is > 35 µM (inactive).
As for `O=C(O)Cc1ccc(NC(=O)C(c2ccccc2)c2ccccc2)cc1`, the figure is > 35 µM (inactive).
Take `O=C(Nc1ccc(N2CCN(C(=O)c3ccco3)CC2)cc1)c1cccs1`: the EC50 is > 35 µM (inactive).
Take `COc1cccc(-c2cc(=O)c3cc(NC(=O)c4ccc(N(C)C)cc4)ccc3[nH]2)c1`: the EC50 is > 35 µM (inactive).
As to `O=C(c1ccco1)N1CCCN(Cc2nc(-c3ccc4c(c3)OCO4)no2)CC1`, the EC50 was > 35 µM (inactive).
Turning to `CC(C)(C)c1ccc(C(=O)Nc2ccc(O)c3c(=O)cc(-c4cccc(Cl)c4)oc23)cc1`, the EC50 was > 35 µM (inactive).
Regarding `O=C(NCCc1ccccc1)C1CCCN1C(=O)Nc1ccc(F)cc1` (stereo not given), the EC50 is > 35 µM (inactive).
On to `CS(=O)(=O)c1ncc(Cl)c(C(=O)Nc2ccc(N3CCOCC3)cc2)n1`, for which the EC50 was > 35 µM (inactive).
In the case of `CC(=O)c1cc(C#N)c(SCC(=O)Nc2nccs2)nc1C`, the EC50 is > 35 µM (inactive).
Turning to `CS(=O)(=O)c1ncc(Cl)c(C(=O)Nc2ccc(OC(F)F)cc2)n1`, the EC50 is > 35 µM (inactive).
For `Cc1ccccc1S(=O)(=O)N(CC(O)CN1CCCCC1)c1ccccc1` (stereo not given), the EC50 is > 35 µM (inactive).
For `COc1ccccc1CCCNC(=O)C1CCC(=O)N(Cc2ccccc2F)C1` (stereo not given), the EC50 was > 35 µM (inactive).
Turning to `COc1ccc(-c2cc3ccccc3oc2=O)cc1NC(=S)NC(=O)c1ccc2c(c1)OCCO2`, the EC50 was 6.8 µM.
Regarding `Cc1cccc(NC(=O)CSc2nnc(CNC(=O)c3ccc(S(=O)(=O)N(C)C)cc3)n2-c2ccc(F)cc2)c1`, the EC50 is > 35 µM (inactive).
Turning to `Cc1ccc(C=C2C(Cl)=C(Cl)C(Cl)=C2Cl)cc1`, the 50% effective concentration (EC50) is 7.19 µM.
Regarding `Cc1ccc(C)c(N(C)C(=O)c2ccc3c(=O)n4c(nc3c2)CCCCC4)c1`, the EC50 was > 35 µM (inactive).
With `CCCn1cc(S(=O)(=O)c2ccc(C)cc2)c(=O)c2cc(OC)c(OC)cc21`, the EC50 is > 35 µM (inactive).
In the case of `COc1ccc(C(O)Cc2nccn2C)cc1` (stereo not given), the EC50 was > 35 µM (inactive).
For `Cn1nc(-c2ccc(OCC(=O)NCC3CCCO3)cc2)c2ccccc2c1=O` (stereo not given), the EC50 was > 35 µM (inactive).
For `CCOC(=O)C1=C(C)N(CCCC(=O)O)C(=O)NC1c1ccccc1OS(=O)(=O)c1ccc(C)cc1` (stereo not given), the EC50 is > 35 µM (inactive).
The figure for `COc1ccccc1NC(=O)c1ccc(S(=O)(=O)N2CCCC2)cc1` is > 35 µM (inactive); for `O=C(Cc1cccc([N+](=O)[O-])c1)Nc1cccc(C(=O)N2CCOCC2)c1` it is > 35 µM (inactive); for `CCCNC(=O)C(Cc1ccccc1)NC(=O)Cc1ccccc1` (stereo not given) it is > 35 µM (inactive).
As to `CC(C)Oc1ccc(C(=O)OCC(=O)NC2CCCCCC2)cc1`, the EC50 is > 35 µM (inactive).
Regarding `CC(=O)c1ccc(N(C(=O)c2csnn2)C(C(=O)NC(C)(C)C)c2cccs2)cc1` (stereo not given), the EC50 is > 35 µM (inactive).
As for `CCOc1ccccc1NC(=O)Nc1cc(OC)ccc1OC`, the figure is > 35 µM (inactive); as for `c1ccc(-c2sc3ccccc3c2-c2ccc(OCCN3CCOCC3)cc2)cc1`, > 35 µM (inactive).
With `CC(C)N=c1scc(-c2ccco2)n1/N=C/c1ccc(O)c(O)c1`, the EC50 was > 35 µM (inactive).
On to `CCOc1ccc(Nc2cc(C)nc3nc(C)nn23)cc1`, for which the EC50 was > 35 µM (inactive).
The figure for `COC(=O)C1=C(C(=O)OC)[C@@H]2N(C)c3ccc(OC)cc3[C@@]23C[C@@H](C(=O)OC)N(C(=O)c2ccco2)C3=N1` is > 35 µM (inactive).
On to `CCOC(=O)C[C@H]1c2ccccc2S(=O)(=O)N1Cc1cccc(C(F)(F)F)c1`, for which the EC50 was > 35 µM (inactive).
As for `Cc1cc(C(=O)CCl)c(C)n1CCc1ccc(Cl)cc1`, the figure is > 35 µM (inactive); as for `CCc1nn(-c2cc(Oc3cccc4ccccc34)nc(-c3ccccc3)n2)c(N)c1C#N`, > 35 µM (inactive); as for `CCN(CC(=O)NCc1ccc(Cl)cc1)S(=O)(=O)c1ccc(F)cc1`, > 35 µM (inactive).
On to `O=C(O)c1cn(-c2ccccc2)c(=O)c2ccccc12`, for which the EC50 was > 35 µM (inactive).
With `COc1ccccc1C(=O)N1CCN(Cc2ccc3c(c2)OCO3)CC1`, the EC50 was > 35 µM (inactive).
On to `O=C(O)c1ccccc1SCCS(=O)(=O)c1ccc(Cl)cc1Cl`, for which the EC50 is > 35 µM (inactive).
For `CSC(SC)=C(C#N)C(=O)c1ccccc1`, the EC50 was > 35 µM (inactive).
Turning to `CN(CCc1ccccc1)C(=O)c1cccc(NC(=O)Cc2cccc([N+](=O)[O-])c2)c1`, the EC50 is > 35 µM (inactive).
The figure for `CN(C(=O)CSc1ccncc1)C1CCCN(Cc2ccccc2F)C1` (stereo not given) is > 35 µM (inactive); for `CC(=O)OC[C@]12CC[C@H]3[C@@](C)(CC[C@H]4C(C)(C)CCC[C@]34C)[C@@H]1C[C@@H](C1=CC(=O)O[C@@H]1OC(C)=O)O2` it is 4.98 µM.
The figure for `O=C(N/N=C/c1ccco1)c1cc(-c2cccc(Br)c2)nc2ccccc12` is > 35 µM (inactive); for `CCc1cc(-c2[nH]ncc2-c2ccc(OC)cc2)c(O)cc1O` it is > 35 µM (inactive); for `CC(C(=O)N(C)c1ccccc1)N1CCN(C(=O)c2ccccc2)CC1` (stereo not given) it is > 35 µM (inactive).
